This data set can be described thus: Area under curve (time =0-6 hours). Format: ADME. On the set-up: time < 6 hr. The settings on record: rat.

Molecules are shown by their SMILES.

The compound `CN1CCC(CNC(=O)Nc2cc(Cl)cc(Cl)c2)(c2ccc(-c3cccnc3)cc2)CC1` returned an AUC of 1.4 µM.

The values are drawn from ChEMBL document CHEMBL1142772, “Discovery and SAR of biaryl piperidine MCH1 receptor antagonists through solid-phase encoded combinatorial synthesis” (Bioorg Med Chem Lett, 2005).
